The subject of assay [1] is PAIGB expression in ROS 17/2.8 cells. In words: Real time PCR of PAIGB expression in ROS 17/2.8 cells. In kind it is cell-based, rat. To be noted: 10 nM. The source says:
Applicants performed multiplex real time PCR (TaqMan) analysis on previously DNAsed samples using gene specific probe and primers and 18S ribosomal RNA probe and primer sets purchased from Applied Biosystem. (Foster City, Calif.) The samples were DNAsed according to the protocol provided by Ambion (DNA-free kit). TaqMan probe and primers for PAIGB was identify using Primer Express computer program. The sequence for rat PAIGB TaqMan probe was 6FAM-5′[…] (SEQ ID NO: 16) forward and reverse primers were 5′[…] 3′ (SEQ ID NO:17) and 5′ […] 3′ (SEQ ID NO:18) respectively. The final concentrations for probes were 500 nM and 40 nM for PAIGB and 18S ribosomal RNA or GAPDH respectively. The concentrations of the primers were 500 nM for PAIGB forward and reversed primers while 18S primers were 10 and 20 nM for forward and reversed primer respectively or 40 nM for GAPDH primers. Standards for rat samples were made from rat tibia or brain RNA in the range of 250 ng to 0.1 ng, while standards for mouse specific TaqMan were made from mouse brain RNA and human standards from human brain RNA (Clonetech, Palo Alto, Calif.) spanning the same range of concentration. Primers and probes for mouse PAIGB were: forward 5′ […] 3′ (SEQ ID NO:19), reverse, 5′ […] (SEQ ID NO:21). Primers and probes for human PAIGB were: forward 5′ […] 3′ (SEQ ID NO:22), reverse 5′ […] 3′(SEQ ID NO: 24). The Taq-man analysis was done using ABI 7700 Sequence Detector under following conditions: 30 min at 48° C., 10 min at 95° C. and 40 cycles of 15 sec at 95° C. and 60 sec at 60° C. Analysis of real-time PCR analysis was performed using (Sequence Detector, Macintosh) program.
Five cell types were primarily used in our experiments. Rat osteoblast cell line (ROS 17/2.8) that expresses moderate levels of PTH receptor 1 (Rodan et al, Rev. Eukaryotic Gene Expression 1:85-98, 1991) were used to perform in vitro experiments. ROS cells were maintained under standard cell culture conditions: 10% heat inactivated FBS in Dulbecco's Modified Eagle Medium with Nutrient Mixture F-12 (DMEM/F12) media, 1% Penicillin/Streptomycin and 1% Glutamax. Mouse cell line C3H10T½ (ATCC# CCL226) as a representative of mouse osteoprogenitor cell line were maintained in Eagles Minimal Essential Media (EMEM) with the addition of 10% heat inactivated FBS and 1% Penicillin/Streptomycin and 1% Glutamax. UMR106 rat osteoblastic cells (ATCC# CRL1661) were cultured in Dulbecco's Modified Eagle Medium (DMEM) supplemented with 10% heat inactivated FBS, 1% Penicillin/Streptomycin and 1% Glutamax. The U2OS human osteoblastic cells (ATCC# HTB96) were cultured in McCoy's 5A Medium Modified supplemented with 10% FBS, 1% Penicillin/Streptomycin and 1% Glutamax. The human HOB-03-CE6 cell line (Bodine, V. N. P., et. al., J. Cell. Biochem., 65: 368-387,1997) was maintained in phenol red free DMEM/F12 media supplemented with 10% heat inactivated FBS and 1% Penicillin/Streptomycin and 1% Glutamax.
ROS 17/2.8 rat osteoblast cell line that express PTH receptor (˜80000 receptors/cell) were treated with increased doses of PTH: 1 nM, 10 nM, 100 nM and 1000 nM. Real time PCR using rat specific Taq-man probes and primers were used to examine the changes in PAIGB expression with PTH treatment.
Time course of PTH induction of PAIGB expression was examined. ROS 17/2.8_cells were treated with 10 nM PTH and RNA was harvested at 1, 2, 4, 6, 8 and 24 hours post treatment.

The test system of the next assay is PAIGB expression. In words: Real time PCR of PAIGB in brain, kidney and heart after intermittent PTH. The following applies: intermittent injection. Type of assay: in vivo, rat. The source says:
Applicants performed multiplex real time PCR (TaqMan) analysis on previously DNAsed samples using gene specific probe and primers and 18S ribosomal RNA probe and primer sets purchased from Applied Biosystem. (Foster City, Calif.) The samples were DNAsed according to the protocol provided by Ambion (DNA-free kit). TaqMan probe and primers for PAIGB was identify using Primer Express computer program. The sequence for rat PAIGB TaqMan probe was 6FAM-5′[…] (SEQ ID NO: 16) forward and reverse primers were 5′[…] 3′ (SEQ ID NO:17) and 5′ […] 3′ (SEQ ID NO:18) respectively. The final concentrations for probes were 500 nM and 40 nM for PAIGB and 18S ribosomal RNA or GAPDH respectively. The concentrations of the primers were 500 nM for PAIGB forward and reversed primers while 18S primers were 10 and 20 nM for forward and reversed primer respectively or 40 nM for GAPDH primers. Standards for rat samples were made from rat tibia or brain RNA in the range of 250 ng to 0.1 ng, while standards for mouse specific TaqMan were made from mouse brain RNA and human standards from human brain RNA (Clonetech, Palo Alto, Calif.) spanning the same range of concentration. Primers and probes for mouse PAIGB were: forward 5′ […] 3′ (SEQ ID NO:19), reverse, 5′ […] 3′ (SEQ ID NO:20) anti-sense and probe 5′ 6FAM-[…] (SEQ ID NO:21). Primers and probes for human PAIGB were: forward 5′ […] 3′ (SEQ ID NO:22), reverse 5′ […] […]

For the substance human PTH (1-34), the “PAIGB message with increasing concentrations” value in assay [1] (1 nM, 100 nM and 1000 nM) is listed as “dose-dependent increase”. In assay [1] (4 hours time point), the “maximal increase of PAIGB expression” value is reported as 2.66+/−0.3. Also, in assay [1] (8 hours), the “effect on PAIGB expression 8 hours post treatment” value is on record as “completely abolished”. The “induction of PAIGB expression” value in assay [1] (data not shown) is 6 fold. For the same substance, in the assay with PAIGB expression, the “changes in PAIGB expression in brain, kidney and heart” value was “did not produce any changes”.

The values above are taken from patent publication US7258999B2, “PTH responsive gene” (Wyeth, priority 2002, dated 2007).
